Experiment [1] concerns Aβ40 in conditioned medium of cells stably expressing Amyloid Precursor Protein (APP). The experiment in a line: In vitro BACE cell-based assay (Aβ40 in conditioned medium, sandwich ELISA). The following applies: Homo sapiens, read-out: HEK cell assay. In a few lines:
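Step two: 10-point compound titration added, starting 100 μM or 10 μM, 0.1% DMSO. Step three: medium Aβ40 measured by ELISA, capture 3 h and detection 2 h at 4° C, TRF read.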
(In general: ELISA stands for enzyme-linked immunosorbent assay.)

Experiment [2] addresses Beta Secretase enzyme (BACE) (Homo sapiens, UniProt P56817). The experiment in a line: In vitro enzymatic BACE FRET (fluorescence resonance energy transfer) assay. Type of experiment: biochemical. The conditions noted are these: average IC50, enzyme assay; read-out: BACE 1 FRET assay. In short, it runs like this: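 A peptide bearing a fluorophore and quencher across the cleavage site serves as substrate at 50 nM. Reactions proceed one hour in acidic acetate buffer (0.05 M, pH 4.2) containing 10% DMSO final and 100 uM genapol, then are terminated with Tris and read fluorimetrically.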

Setting [3] is: HEK293, average IC50, HEK cells.

Molecules are shown by their SMILES. Read-outs that look alike come from different tables or passages of the source. Where only a bound is given, the exact number is not on record here.

Sequence of Beta Secretase enzyme (BACE) (P56817 46-501, species assumed): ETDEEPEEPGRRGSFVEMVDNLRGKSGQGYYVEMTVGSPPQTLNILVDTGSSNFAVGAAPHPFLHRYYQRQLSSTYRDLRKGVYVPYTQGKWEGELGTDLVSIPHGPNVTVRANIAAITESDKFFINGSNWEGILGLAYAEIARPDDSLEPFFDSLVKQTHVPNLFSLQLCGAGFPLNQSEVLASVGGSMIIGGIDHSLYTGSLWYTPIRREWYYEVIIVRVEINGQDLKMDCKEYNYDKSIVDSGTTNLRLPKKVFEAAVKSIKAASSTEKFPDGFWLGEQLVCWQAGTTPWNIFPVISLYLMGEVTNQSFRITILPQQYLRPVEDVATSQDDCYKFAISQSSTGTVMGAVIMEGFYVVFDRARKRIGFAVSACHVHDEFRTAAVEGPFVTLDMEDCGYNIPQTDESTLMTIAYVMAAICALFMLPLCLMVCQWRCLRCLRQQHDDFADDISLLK

Regarding `CC1(C)CN(c2cc(F)c3c(c2)[C@]2(COC(N)=N2)c2cc(-c4cncc(F)c4)ccc2O3)CCO1` [Example 282, (4S)-2′-(2,2-dimethyl-4-morpholinyl)-4′-fluoro-7′-(5-fluoro-3-pyridinyl)spiro[1,3-oxazole-4,9′-xanthen]-2-amine], the IC50 in experiment [1] (HEK293, average IC50) turned out to be 8.2 nM; in experiment [2], 2 nM.

Consider `NC1=N[C@@]2(CO1)c1cc(-c3cnccc3F)ccc1Oc1c(F)cc(C3=CCCOC3)cc12` [Example 1045, (4S)-2′-(5,6-dihydro-2H-pyran-3-yl)-4′-fluoro-7′-(4-fluoro-3-pyridinyl)spiro[1,3-oxazole-4,9′-xanthen]-2-amine], for which the IC50 was found to be 12 nM in experiment [1] (HEK293, average IC50) and 0.6 nM in experiment [2].

For the molecule `CC#Cc1cncc(-c2ccc3c(c2)[C@@]2(COC(N)=N2)c2cc(C#CC(C)(C)O)cnc2O3)c1` [Example 945, 4-((5S)-2′-amino-7-(5-(1-propyn-1-yl)-3-pyridinyl)spiro[chromeno[2,3-b]pyridine-5,4′-[1,3]oxazol]-3-yl)-2-methyl-3-butyn-2-ol], the IC50 in experiment [1] (setting [3]) was 2 nM; in experiment [2] it was 0.8 nM.

As for `NC1=N[C@@]2(CO1)c1cc(-c3cccnc3F)ccc1Oc1c(F)cc(N3CCC4(CC3)COC4)cc12` [Example 189, (4S)-4′-fluoro-7′-(2-fluoro-3-pyridinyl)-2′-(2-oxa-7-azaspiro[3.5]non-7-yl)spiro[1,3-oxazole-4,9′-xanthen]-2-amine], the IC50 in experiment [1] (HEK293, average IC50) came out at 7.8 nM; in experiment [2], 0.8 nM.

Take `CC(C)(C)C#Cc1ccc2c(c1)[C@@]1(COC(N)=N1)c1cc(N3CCOCC3)cnc1O2` [Example 464, (5S)-7-(3,3-dimethyl-1-butyn-1-yl)-3-(4-morpholinyl)spiro[chromeno[2,3-b]pyridine-5,4′-[1,3]oxazol]-2′-amine]: the IC50 was 69 nM in experiment [1] (setting [3]) and 12.8 nM in experiment [2].

As for `CC1(COc2cc(F)c3c(c2)[C@@]2(CSC(N)=N2)c2cc(-c4cccnc4F)c(F)cc2O3)COC1` [Example 886, (4R)-3′,5′-difluoro-2′-(2-fluoro-3-pyridinyl)-7′-((3-methyl-3-oxetanyl)methoxy)spiro[1,3-thiazole-4,9′-xanthen]-2-amine], the IC50 was no less than 10000 nM in experiment [1] (setting [3]) and 475 nM in experiment [2].

Regarding `CC(C)(C)COc1ccc2c(c1)[C@@]1(COC(N)=N1)c1cc(-c3cncnc3)c(F)cc1O2` [Example 511, (4R)-7′-(2,2-dimethylpropoxy)-3′-fluoro-2′-(5-pyrimidinyl)spiro[1,3-oxazole-4,9′-xanthen]-2-amine], the results for the IC50 in experiment [1] (setting [3]) and in experiment [2] were 492 nM and 99.3 nM, respectively.

As to `NC1=N[C@@]2(CO1)c1cc(-c3cncc(N4CC[C@@H](F)C4)c3)ccc1Oc1cnc(Cl)cc12` [Example 429, (5S)-3-chloro-7-(5-((3R)-3-fluoro-1-pyrrolidinyl)-3-pyridinyl)spiro[chromeno[2,3-c]pyridine-5,4′-[1,3]oxazol]-2′-amine], the IC50 in experiment [1] (setting [3]) came to 2210 nM; in experiment [2], 3230 nM.

As to `CC1(COc2ccc3c(c2Br)[C@]2(COC(N)=N2)c2cc(-c4cccnc4)ccc2O3)COC1` [Example 517, (4S)-1′-bromo-2′-((3-methyl-3-oxetanyl)methoxy)-7′-(3-pyridinyl)spiro[1,3-oxazole-4,9′-xanthen]-2-amine], the IC50 in experiment [1] (setting [3]) was 20.5 nM; in experiment [2], 8.4 nM.

Regarding `Cc1ccc(-c2cnc3c(c2)[C@]2(CSC(N)=N2)c2cc(-c4cnccc4F)ccc2O3)cn1` [Example 766, (5S)-7-(4-fluoro-3-pyridinyl)-3-(6-methyl-3-pyridinyl)spiro[chromeno[2,3-b]pyridine-5,4′-[1,3]thiazol]-2′-amine], the IC50 is 10 nM in experiment [1] (HEK293, average IC50) and 1.2 nM in experiment [2].

Take `Cc1ccc(-c2cc(F)c3c(c2)[C@]2(COC(N)=N2)c2cc(-c4cncc(F)c4)ccc2O3)nn1` [Example 292, (4S)-4′-fluoro-7′-(5-fluoro-3-pyridinyl)-2′-(6-methyl-3-pyridazinyl)spiro[1,3-oxazole-4,9′-xanthen]-2-amine]: the IC50 is 31.6 nM in experiment [1] (HEK293, average IC50) and 2 nM in experiment [2].

As to `NC1=N[C@@]2(CS1)c1cc(-c3cccnc3)ccc1Oc1ncc(C3=CCCOC3)cc12` [Example 959, (5S)-3-(5,6-dihydro-2H-pyran-3-yl)-7-(3-pyridinyl)spiro[chromeno[2,3-b]pyridine-5,4′-[1,3]thiazol]-2′-amine], the results for the IC50 in experiment [1] (setting [3]) and in experiment [2] were 13 nM and 1 nM, respectively.

Take `Cc1ccnn1-c1cc(F)c2c(c1)[C@]1(COC(N)=N1)c1cc(-c3cncnc3)ccc1O2` [Example 636, (4S)-4′-fluoro-2′-(5-methyl-1H-pyrazol-1-yl)-7′-(5-pyrimidinyl)spiro[1,3-oxazole-4,9′-xanthen]-2-amine]: the IC50 amounted to 273 nM in experiment [1] (setting [3]) and 28.8 nM in experiment [2].

Regarding `NC1=N[C@@]2(CO1)c1cc(-c3cccnc3F)ccc1Oc1cnc(-c3ccnc(C(F)(F)F)c3)cc12` [Example 545, (5S)-7-(2-fluoro-3-pyridinyl)-3-(2-(trifluoromethyl)-4-pyridinyl)spiro[chromeno[2,3-c]pyridine-5,4′-[1,3]oxazol]-2′-amine], the IC50 in experiment [1] (setting [3]) came to 406 nM; in experiment [2], 5.6 nM.

As for `COCC1SC(N)=NC12c1cc(-c3cccnc3F)ccc1Oc1c(F)cc(OC)cc12` [Example 720, (4R)-4′-fluoro-7′-(2-fluoro-3-pyridinyl)-2′-methoxy-5-(methoxymethyl)spiro[1,3-thiazole-4,9′-xanthen]-2-amine, (4S)-4′-fluoro-7′-(2-fluoro-3-pyridinyl)-2′-methoxy-5-(methoxymethyl)spiro[1,3-thiazole-4,9′-xanthen]-2-amine], the IC50 in experiment [1] (HEK293, average IC50) was found to be 1370 nM; in experiment [2], 67 nM.

`CC#Cc1cncc(-c2ccc3c(c2)[C@@]2(COC(N)=N2)c2cc(-c4ccncc4)nc(F)c2O3)c1` [Example 739, (5S)-1-fluoro-7-(5-(1-propyn-1-yl)-3-pyridinyl)-3-(4-pyridinyl)spiro[chromeno[2,3-c]pyridine-5,4′-[1,3]oxazol]-2′-amine]: the IC50 turned out to be 5 nM in experiment [1] (HEK293, average IC50) and 0.5 nM in experiment [2].

On to `NC1=N[C@@]2(CO1)c1cc(-c3cncc(F)c3)ccc1Oc1c2cc(N2CC[C@@H](F)C2)nc1F` [Example 921, (5S)-1-fluoro-7-(5-fluoro-3-pyridinyl)-3-((3R)-3-fluoro-1-pyrrolidinyl)spiro[chromeno[2,3-c]pyridine-5,4′-[1,3]oxazol]-2′-amine], for which the figures for the IC50 in experiment [1] (setting [3]) and in experiment [2] were 6 nM and 0.5 nM, respectively.

Regarding `CC(C)(C)/C=C/c1cc2c(cn1)Oc1ccc(-c3ccc(F)nc3)cc1[C@@]21COC(N)=N1` [Example 434, (5S)-3-((1E)-3,3-dimethyl-1-buten-1-yl)-7-(6-fluoro-3-pyridinyl)spiro[chromeno[2,3-c]pyridine-5,4′-[1,3]oxazol]-2′-amine], the IC50 worked out at 31.7 nM in experiment [1] (setting [3]) and 3 nM in experiment [2].

With `CC#Cc1cncc(-c2ccc3c(c2)[C@@]2(CSC(N)=N2)c2cc(-c4cncc(C#CC)c4)cnc2O3)c1` [Example 730, (5S)-3,7-bis(5-(1-propyn-1-yl)-3-pyridinyl)spiro[chromeno[2,3-b]pyridine-5,4′-[1,3]thiazol]-2′-amine], the IC50 in experiment [1] (HEK293, average IC50) is 171 nM; in experiment [2], 1.8 nM.

As to `NC1=N[C@@]2(CS1)c1cc(-c3cccnc3F)ccc1Oc1c2cc(-c2ccncc2)nc1F` [Example 1027, (5S)-1-fluoro-7-(2-fluoro-3-pyridinyl)-3-(4-pyridinyl)spiro[chromeno[2,3-c]pyridine-5,4′-[1,3]thiazol]-2′-amine], the IC50 in experiment [1] (HEK293, average IC50) is 14 nM; in experiment [2], 0.4 nM.

Source of the values: US8883782B2, “Spiro-tetracyclic ring compounds as beta-secretase modulators and methods of use” (Amgen Inc., priority 2010, dated 2014).
